Measured values: patent US6559101B2, “N- (5, 7-dimethoxy [1, 2, 4] triazolo [1, 5-a] pyrimidin-2-yl) arylsulfonamide compounds and their use as herbicides” (Dow AgroSciences LLC, priority 2000, dated 2003)

Experiments:
[1] = tested on: wild buckwheat (Polygonum convolvulus); test: Postemergence herbicidal activity; assay type: in vivo; conditions: 7.8 ppm; scored after 2 weeks; 0 no injury, 100 complete kill
How it was run: (§1)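 Seedlings at first–second true leaf stage (grown 7-21 days, greenhouse 23-29° C. day) sprayed to coverage with compound in aqueous acetone/DMSO/isopropanol/crop oil/surfactant carrier; 1 ppm ≈ 1 g/ha. Sub-irrigated; injury scored visually after 2 weeks versus untreated plants, 0 (none) to 100% (complete kill).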

[2] = tested on: Rox orange sorghum (Sorghum bicolor); test: Postemergence herbicidal activity; assay type: in vivo; conditions: 7.8 ppm; scored after 2 weeks; 0 no injury, 100 complete kill
How it was run: as §1

[3] = tested on: velvetleaf (Abutilion theophrasti); test: Postemergence herbicidal activity; assay type: in vivo; conditions: 7.8 ppm; scored after 2 weeks; 0 no injury, 100 complete kill
How it was run: as §1

wild oats (Avena fatua) [4] = test: Postemergence herbicidal activity; assay type: in vivo; conditions: 7.8 ppm; scored after 2 weeks; 0 no injury, 100 complete kill
How it was run: as §1

[5] = tested on: morningglory (Ipomoea hederacea); test: Postemergence herbicidal activity; assay type: in vivo; conditions: 7.8 ppm; scored after 2 weeks; 0 no injury, 100 complete kill
How it was run: as §1

viola (Viola tricolor) = test: Postemergence herbicidal activity; assay type: in vivo; conditions: 7.8 ppm; scored after 2 weeks; 0 no injury, 100 complete kill
How it was run: as §1

[6] = tested on: pigweed (Amaranthus retroflexus); test: Postemergence herbicidal activity; assay type: in vivo; conditions: 7.8 ppm; scored after 2 weeks; 0 no injury, 100 complete kill
How it was run: as §1

[7] = tested on: blackgrass (Alopecurus myosuroides); test: Postemergence herbicidal activity; assay type: in vivo; conditions: 7.8 ppm; scored after 2 weeks; 0 no injury, 100 complete kill
How it was run: as §1

[8] = tested on: giant foxtail (Setaria faberi); test: Postemergence herbicidal activity; assay type: in vivo; conditions: 7.8 ppm; scored after 2 weeks; 0 no injury, 100 complete kill
How it was run: as §1

[9] = tested on: lambsquarters (Chenopodium album); test: Postemergence herbicidal activity; assay type: in vivo; conditions: 7.8 ppm; scored after 2 weeks; 0 no injury, 100 complete kill
How it was run: as §1

[10] = tested on: cocklebur (Xanthium strumarium); test: Postemergence herbicidal activity; assay type: in vivo; conditions: 7.8 ppm; scored after 2 weeks; 0 no injury, 100 complete kill
How it was run: as §1

[11] = tested on: chickweed (Stellaria media); test: Postemergence herbicidal activity; assay type: in vivo; conditions: 7.8 ppm; scored after 2 weeks; 0 no injury, 100 complete kill
How it was run: as §1

[12] = tested on: crabgrass (Digitaria sanguinalis); test: Preemergence herbicidal activity; assay type: in vivo; conditions: 17.5 g/Ha; scored after 3 weeks; 0 no injury, 100 complete kill or no germination
How it was run: (§2)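 Pre-emergence test. Seeds sown, soil sprayed with compound (acetone/DMSO stock diluted in water + 0.1% Tween 155), top dose 4.48 kg/ha. Greenhouse ~15 h light, 23-29/22-28 °C day/night. Visual % injury vs untreated at 3 wk.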

[13] = tested on: barnyardgrass (Echinochloa crus-galli); test: Preemergence herbicidal activity; assay type: in vivo; conditions: 17.5 g/Ha; scored after 3 weeks; 0 no injury, 100 complete kill or no germination
How it was run: as §2

[14] = tested on: Rox orange sorghum (Sorghum bicolor); test: Preemergence herbicidal activity; assay type: in vivo; conditions: 17.5 g/Ha; scored after 3 weeks; 0 no injury, 100 complete kill or no germination
How it was run: as §2

[15] = tested on: velvetleaf (Abutilion theophrasti); test: Preemergence herbicidal activity; assay type: in vivo; conditions: 17.5 g/Ha; scored after 3 weeks; 0 no injury, 100 complete kill or no germination
How it was run: as §2

wild oats (Avena fatua) [16] = test: Preemergence herbicidal activity; assay type: in vivo; conditions: 17.5 g/Ha; scored after 3 weeks; 0 no injury, 100 complete kill or no germination
How it was run: as §2

[17] = tested on: morningglory (Ipomoea hederacea); test: Preemergence herbicidal activity; assay type: in vivo; conditions: 17.5 g/Ha; scored after 3 weeks; 0 no injury, 100 complete kill or no germination
How it was run: as §2

[18] = tested on: wild poinsettia (Euphorbia heterophylla); test: Preemergence herbicidal activity; assay type: in vivo; conditions: 17.5 g/Ha; scored after 3 weeks; 0 no injury, 100 complete kill or no germination
How it was run: as §2

[19] = tested on: pigweed (Amaranthus retroflexus); test: Preemergence herbicidal activity; assay type: in vivo; conditions: 17.5 g/Ha; scored after 3 weeks; 0 no injury, 100 complete kill or no germination
How it was run: as §2

[20] = tested on: blackgrass (Alopecurus myosuroides); test: Preemergence herbicidal activity; assay type: in vivo; conditions: 17.5 g/Ha; scored after 3 weeks; 0 no injury, 100 complete kill or no germination
How it was run: as §2

[21] = tested on: giant foxtail (Setaria faberi); test: Preemergence herbicidal activity; assay type: in vivo; conditions: 17.5 g/Ha; scored after 3 weeks; 0 no injury, 100 complete kill or no germination
How it was run: as §2

[22] = tested on: lambsquarters (Chenopodium album); test: Preemergence herbicidal activity; assay type: in vivo; conditions: 17.5 g/Ha; scored after 3 weeks; 0 no injury, 100 complete kill or no germination
How it was run: as §2

[23] = tested on: cocklebur (Xanthium strumarium); test: Preemergence herbicidal activity; assay type: in vivo; conditions: 17.5 g/Ha; scored after 3 weeks; 0 no injury, 100 complete kill or no germination
How it was run: as §2

[24] = tested on: Windgrass (Apera spica-venta); test: Postemergence herbicidal activity with safener; assay type: in vivo; conditions: 25 g/ha postemergence; 0 no injury, 100 complete kill
Source text: (§3) Pre-formulated test materials utilized were as follows: Compound 15 as a 30 g ai/L emulsified concentrate (3% Compound 15, 3% Agrimer AL-10 (copolymer of 1-ethenyl-2-pyrolidinone and 1-butene), 94% N-methyl pyrrolidone w/w) and cloquintocet-mexyl (CQC) as a 120 g ai/L emulsified concentrate (12% cloquintocet-mexyl, 2.5% Toximul D, 2.5% Toximul H, [blends of calcium dodecylbenzenesulfonate plus castor oil ehtoxylates, nonylphenol ethoxylates and EO-PO block copolymers] 83% aromatic 200 w/w). Diluted stock solutions of formulated materials were made in distilled water. Final spray solutions were made by adding specified aliquots of diluted stock materials to a solution containing distilled water and X-77 surfactant at 0.25% v/v. The solutions were applied using a mechanized track-sprayer calibrated to deliver 187 1/ha carrier volume with a nozzle (flat fan) pressure of 276 kilopascals.
(§4) Assessment of weed control and crop injury was taken a 3 weeks after application. Plant injury was visually assessed on a scale of 0 to 100% with 0 equal to no injury and 100 equal to complete kill.

[25] = tested on: Green foxtail (Setaria viridis); test: Postemergence herbicidal activity with safener; assay type: in vivo; conditions: 25 g/ha postemergence; 0 no injury, 100 complete kill
Source text: as §3, §4

[26] = tested on: Italian ryegrass (Lolium multiflorum); test: Postemergence herbicidal activity with safener; assay type: in vivo; conditions: 25 g/ha postemergence; 0 no injury, 100 complete kill
Source text: as §3, §4

Wild oat (Avena fatua) = test: Postemergence herbicidal activity with safener; assay type: in vivo; conditions: 25 g/ha postemergence; 0 no injury, 100 complete kill
Source text: as §3, §4

[27] = tested on: blackgrass (Alopecurus myosuroides); test: Postemergence herbicidal activity with safener; assay type: in vivo; conditions: 25 g/ha postemergence; 0 no injury, 100 complete kill
Source text: as §3, §4

[28] = tested on: Spring wheat (Triticum aestivum); test: Postemergence herbicidal activity with safener, crop injury; assay type: in vivo; conditions: 25 g/ha postemergence; 3 weeks after application; 0 no injury, 100 complete kill
Source text: as §3, §4

## COc1cc(OC)n2nc(NS(=O)(=O)c3c(Cl)cccc3Cl)nc2n1 [Compound 1, N-(5,7-dimethoxy[1,2,4]triazolo-[1,5-a]pyrimidin-2-yl)-2,6-dichlorobenzene-sulfonamide]
[1]
  Postemergence herbicidal activity POLCO: 95%
[2]
  Postemergence herbicidal activity SORBI: 90%
[3]
  Postemergence herbicidal activity ABUTH: 85%
Wild oats (Avena fatua) [4]
  Postemergence herbicidal activity AVEFA: 95%
[5]
  Postemergence herbicidal activity IPOHE: 80%
Viola (Viola tricolor)
  Postemergence herbicidal activity VIOTR: 75%
[6]
  Postemergence herbicidal activity AMARE: 90%
[7]
  Postemergence herbicidal activity ALOMY: 90%
[8]
  Postemergence herbicidal activity SETFA: 98%
[9]
  Postemergence herbicidal activity CHEAL: 90%
[10]
  Postemergence herbicidal activity XANST: 85%
[11]
  Postemergence herbicidal activity STEME: 95%
[12]
  Preemergence herbicidal activity DIGSA: 98%
[13]
  Preemergence herbicidal activity ECHCG: 98%
[14]
  Preemergence herbicidal activity SORBI: 98%
[15]
  Preemergence herbicidal activity ABUTH: 99%
Wild oats (Avena fatua) [16]
  Preemergence herbicidal activity AVEFA: 100%
[17]
  Preemergence herbicidal activity IPOHE: 80%
[18]
  Preemergence herbicidal activity EPHHL: 70%
[19]
  Preemergence herbicidal activity AMARE: 100%
[20]
  Preemergence herbicidal activity ALOMY: 100%
[21]
  Preemergence herbicidal activity SETFA: 95%
[22]
  Preemergence herbicidal activity CHEAL: 98%
[23]
  Preemergence herbicidal activity XANST: 100%
other
  melting point: 211 to 213 °C

## COc1cc(OC)n2nc(NS(=O)(=O)c3c(C(F)(F)F)ccnc3OC)nc2n1 [Compound 15, N-(5,7-dimethoxy[1,2,4]triazolo[1,5-a]pyrimidin-2-yl)-2-methoxy-4-(trifluoromethyl)-3-pyridinesulfonamide]
[1]
  Postemergence herbicidal activity POLCO: 98%
[2]
  Postemergence herbicidal activity SORBI: 98%
[3]
  Postemergence herbicidal activity ABUTH: 95%
Wild oats (Avena fatua) [4]
  Postemergence herbicidal activity AVEFA: 98%
Viola (Viola tricolor)
  Postemergence herbicidal activity VIOTR: 95%
[6]
  Postemergence herbicidal activity AMARE: 98%
[7]
  Postemergence herbicidal activity ALOMY: 99%
[8]
  Postemergence herbicidal activity SETFA: 100%
[9]
  Postemergence herbicidal activity CHEAL: 95%
[10]
  Postemergence herbicidal activity XANST: 90%
[11]
  Postemergence herbicidal activity STEME: 98%
[12]
  Preemergence herbicidal activity DIGSA: 98%
[13]
  Preemergence herbicidal activity ECHCG: 98%
[14]
  Preemergence herbicidal activity SORBI: 100%
[15]
  Preemergence herbicidal activity ABUTH: 95%
Wild oats (Avena fatua) [16]
  Preemergence herbicidal activity AVEFA: 98%
[17]
  Preemergence herbicidal activity IPOHE: 95%
[18]
  Preemergence herbicidal activity EPHHL: 98%
[19]
  Preemergence herbicidal activity AMARE: 70%
[20]
  Preemergence herbicidal activity ALOMY: 100%
[21]
  Preemergence herbicidal activity SETFA: 100%
[22]
  Preemergence herbicidal activity CHEAL: 100%
[23]
  Preemergence herbicidal activity XANST: 95%
[24]
  % Control 3 Weeks After Application APSEV: 100%
[25]
  % Control 3 Weeks After Application SETVI: 99%
[26]
  % Control 3 Weeks After Application LOLMU: 99%
Wild oat (Avena fatua)
  % Control 3 Weeks After Application AVEFA: 99%
[27]
  % Control 3 Weeks After Application ALOMY: 99%
[28]
  % Injury TRZAS: 47%
